# Measured values from patent US4792547A, “Pyrazine-2-carboxamide derivatives useful in treating allergic disease” (priority 1985, dated 1988).
# Counter-ions that a name gives are not always drawn.
# System: not listed separately
# Test: Acute toxicity test (oral)
# Settings: mouse, in vivo, po
# Method: Male ICR mice 5 weeks old were used as 5 animals at a group. The compounds were administered orally at each dosage.
row,Structure (SMILES),LD50 [mg/kg]
1,O=C(Nc1nnn[nH]1)c1cncc(N2CCCC2)n1.[Na],> 2000

# Same assay, conditions: mouse, in vivo; male ICR mice 5 weeks old, oral
row,Structure (SMILES),LD50 [mg/kg]
1,"O=C(Nc1nnn[nH]1)c1cncc(N2CCCC2)n1 [Example 8 (free), 6-(1-Pyrrolidinyl)-N-(1H-5-tetrazolyl)pyrazine-2-carboxamide]",> 2000

# System: mast cells
# Test: Inhibitory effect on histamine release from sensitized rat peritoneal mast cells (DNP-As antigen challenge)
# Type: cell-based, Wistar rats
# Settings: Mast cell; rat peritoneal cells passively sensitized with anti-DNP-As rat serum; compound 1 min before DNP-As; 37° C.
# Method: The inhibitory effect of histamine release was examined with the under method, while using disodium cromoglycate(II), tranilast (III), and TA-5707F(IV)as reference drugs. Mixed peritoneal cells obtained from male Wistar rats weighing 350-400 g were sensitized by incubating for 2 hr at 37° C. with anti-DNP-As rat serum (produced according to the method of Tada and Okumura [Tada, T. and Okmura, K.: J. Immunology, 106,1002 (1971)]. The cell suspension containing about 1×10^5 mast cells/ml was prepared in Hepes Tyrode buffer containing heparin (10 unit/ml ) and BSA (0.3%). This suspension was divided into 0.8 ml aliquots in separate polyethylene tubes. […] After incubation at 37° C. for 1 min, 0.1 ml of DNP-As solution (50μg/ml) were added, followed by incubation at 37° C. for 2 min. The reactio was terminated by adding 2 ml of the cold buffer. The supernatants were separated by centrifugation, the cell pellets were resuspended in 3 ml buffer and placed for 3 min in the heating block (100° C.) to release the residual histamine into cells. The histamine was quantitated using the spedrofluorometric technique of modified Shore's method. The IC 50 was obtained from the dose-response curve.
row,Structure (SMILES),IC50 [nM]
1,"COc1ccc(/C=C/C(=O)Nc2ccccc2C(=O)O)cc1OC [tranilast (III), tranilast, reference compound]",24000
2,"O=C(Nc1nnn[nH]1)c1cncc(N2CCOCC2)n1 [Example 14, 6-(4-Morpholinyl)-N-(1H-5-tetrazolyl)pyrazine-2-carboxamide]",36
3,"CCCNc1cncc(C(=O)Nc2nnn[nH]2)n1 [Example 4, 6-(n-Propylamino)-N-(1H-5-tetrazolyl)pyrazine-2-carboxamide]",17
4,"O=C(Nc1nnn[nH]1)c1cncc(N2CCCC2)n1 [Example 8 (free), 6-(1-Pyrrolidinyl)-N-(1H-5-tetrazolyl)pyrazine-2-carboxamide]",1.2
5,"CC(C)Nc1cncc(C(=O)Nc2nnn[nH]2)n1 [Example 5, 6-(Isopropylamino)-N-(1H-5-tetrazolyl)pyrazine-2-carboxamide]",5
6,"CN(C)c1cncc(C(=O)Nc2nnn[nH]2)n1 [Example 6, 6-(Dimethylamino)-N-(1H-5-tetrazolyl)pyrazine-2-carboxamide]",0.47
7,"O=C(O)c1cc(=O)c2c(OCC(O)COc3cccc4oc(C(=O)O)cc(=O)c34)cccc2o1 [disodium cromoglycate (II), disodium cromoglycate, reference compound]",190
8,"O=C(Nc1nnn[nH]1)c1cncc(Nc2ccccc2)n1 [Example 16, 6-(Phenylamino)-N-(1H-5-tetrazolyl)pyrazine-2-carboxamide]",0.062
9,"O=C(Nc1nnn[nH]1)c1cncc(N2CCCCC2)n1 [Example 9, 6-(1-Piperidinyl)-N-(1H-5-tetrazolyl)pyrazine-2-carboxamide]",5.6
10,"CNc1cncc(C(=O)Nc2nnn[nH]2)n1 [Example 2, 6-(Methylamino)-N-(1H-5-tetrazolyl)pyrazine-2-carboxamide]",2.5
11,"Cc1cccc(C(=O)Nc2nnn[nH]2)n1 [TA-5707F (IV), 6-methyl-N-(1H-5-tetrazolyl) pyridine-2-carboxamide, reference compound]",46
12,"CN1CCN(c2cncc(C(=O)Nc3nnn[nH]3)n2)CC1 [Example 15, 6-(4-Methyl-1-piperazinyl)-N-(1H-5-tetrazolyl)pyrazine-2-carboxamide hydrochloride hydrate]",36
13,"CCNc1cncc(C(=O)Nc2nnn[nH]2)n1 [Example 3, 6-(Ethylamino)-N-(1H-5-tetrazolyl)pyrazine-2-carboxamide]",2
14,"CCN(CC)c1cncc(C(=O)Nc2nnn[nH]2)n1 [Example 7, 6-(Diethylamino)-N-(1H-5-tetrazolyl)pyrazine-2-carboxamide]",15

# System: not given
# Test: not given
# Settings: daily dosage about 300 mg, oral; cited from earlier work
row,Structure (SMILES),side effects in the digestive system
1,"COc1ccc(/C=C/C(=O)Nc2ccccc2C(=O)O)cc1OC [tranilast (III), tranilast, reference compound]","nausea, abdominal pain, and gastric discomfort"

# Same assay, conditions: human, in vivo; cited from earlier work
row,Structure (SMILES),physical discomfort in the throat
1,"O=C(O)c1cc(=O)c2c(OCC(O)COc3cccc4oc(C(=O)O)cc(=O)c34)cccc2o1 [disodium cromoglycate (II), disodium cromoglycate, reference compound]",feeling of physical discomfort in the throat
